US10456374B2, “Pyrrolidone carboxylic acid (PCA) for ophthalmic use” (Laboratori Baldacci S.p.A., priority 2015, dated 2019)

How the values were obtained:
[1] = Ex vivo transcorneal permeation through isolated rabbit cornea; format: in vitro ADME; conditions: donor RBB pH 7.6 with 0.02% w/w PCA and 0.04% w/w hyaluronic acid, 32° C.
From the text: Evaluation of PCA Ex Vivo Transcorneal Permeation of a Composition According to Example 2 Through Isolated Rabbit Cornea.
For the determination of ex vivo corneal permeability, rabbit corneas obtained after proptosis of the eye, performed immediately after the animal euthanization, were used. The rabbits were New Zealand albino rabbits (n=3) and were euthanized by intravenous injection of Pentothal sodium (Farmaceutici Gellini, Aprilia, Italy). After the eyes were proptosed, the cornea, with 2 mm of sclera, was immediately excised and mounted in a perfusion apparatus. During the preparation, particular attention was paid to prevent the exfoliation of the corneal epithelium and its contact with any solid surfaces. […]
After the permeation experiment start, at appropriate intervals of time (15, 30, 60, 90, 120, 180 and 240 minutes), 0.50 mL of solution were withdrawn from the receiving compartment (endothelial side) and replaced with fresh RBB. At the end of the experiment, the entire donor phase was collected and submitted to quantitative determination of the active ingredient in a similar manner as provided for the samples of the receiving phase.
Quantitative analysis of PCA was performed by HPLC using a C18 reverse phase column C18 (Bondclone 10 μm 300×3.9 mm), and the eluent was a 98:2 mixture buffer solution to acetonitrile. […]

[2] = Residence in the ocular tissue; conditions: stated in the description, no test described
[3] = Pescina et al, 2015; cited from earlier work

Compound | Papp at 240 min, 0.02 % w/w ([1]; New Zealand albino, isolated rabbit cornea, read-out: PCA corneal permeability) | PCA found in the receiving compartment, of the amount present in the donor compartment ([1]; end of the experiment (240 minutes)) | Period of time PCA remains in the ocular tissue [2] | permeability through porcine cornea [3]
O=C1CCC(C(=O)O)N1 (stereo not shown) [PCA, Pyrrolidone carboxylic acid] | 3.95 ×10⁻⁶ cm/s | 0.051 % w/w | greater than 3 hours | 
O=C1OC2(c3ccc(O)cc3Oc3cc(O)ccc32)c2ccccc21 [sodium fluorescein] |  |  |  | 0.05 10^−5 cm/s
